Test results published in patent publication US10800791B2, “Triazole ACC inhibitors and uses thereof” (Gilead Apollo, LLC, priority 2015, dated 2020).
≈ marks a conversion by molar mass, not a printed value. Read-outs that look alike come from different tables or passages of the source.

What was measured:
[1] = system: C. albicans; test: Antifungal Activity Assay (broth microtiter MIC), C. albicans; format: cell-based, Candida albicans; conditions: Candida albicans, ATCC90028, 48 h
In short: (§1)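 Broth microdilution per CLSI M27-A3 in RPMI 1640+MOPS, inoculum 2.5×10^3 CFU/mL final from overnight Sabouraud dextrose agar cultures at 35° C. Compounds diluted from DMSO stock to 128 μg/mL in water. MIC read visually versus growth control at 48 h.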

[2] = system: C. parapsilosis; test: Antifungal Activity Assay (broth microtiter MIC), C. parapsilosis; format: cell-based, Candida parapsilosis; conditions: Lodderomyces parapsilosis, ATCC22019, 48 h
In short: as §1

[3] = target: fungal (fACC2) (UniProt Q00955); conditions: read-out: fACC2 (in vitro ACC2 Inhibition Assay, IC50), ADP-Glo, 5 nM ACC2, 20 μM ATP, 20 μM acetyl-CoA
[4] = system: Botrtyis cinerea (Bc); test: Growth inhibition assay of fungal pathogens, Bc; format: cell-based; conditions: 48 h
In short: (§2)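 Pathogen growth in 17% V8 broth is measured by OD600 at 24 and 48 hours, after blank subtraction, in the presence of compound at 50, 10 and 2 ppm or 2, 0.4 and 0.08 ppm. Inhibition in percent comes from 48-hour readings against the DMSO control.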

[5] = system: Fusarium virguliforme (Fv); test: Growth inhibition assay of fungal pathogens, Fv; format: cell-based; conditions: 48 h
In short: as §2

[6] = system: C. krusei; test: Antifungal Activity Assay (broth microtiter MIC), C. krusei; format: cell-based, Candida krusei; conditions: Pichia kudriavzevii, ATCC6258, 48 h
In short: as §1

[7] = system: Fusarium moniliforme (Fm); test: Growth inhibition assay of fungal pathogens, Fm; format: cell-based; conditions: for IC90: Fusarium verticillioides, 48 h, read-out: Concentration at 90% Inhibition Fm
In short: as §2

[8] = system: Septoria tritici (St); test: Growth inhibition assay of fungal pathogens, St; format: cell-based; conditions: Zymoseptoria tritici, 48 h
In short: as §2

[9] = system: Diplodia maydis (Dm); test: Growth inhibition assay of fungal pathogens, Dm; format: cell-based; conditions: Stenocarpella maydis, 48 h
In short: as §2

[10] = system: Rhizoctonia solani (Rs); test: Growth inhibition assay of fungal pathogens, Rs; format: cell-based; conditions: 48 h
[11] = system: Collectotrichum graminicola (Cg); test: Growth inhibition assay of fungal pathogens, Cg; format: cell-based; conditions: 48 h
In short: as §2

[12] = Table 3a, ATCC 90028, 3 replicates, MIC recorded at 48 h, read-out: MIC, C. albicans ATCC 90028
[13] = Table 3b (additional results), ATCC 90028, 3 replicates, MIC recorded at 48 h, read-out: MIC, C. albicans ATCC 90028
[14] = Table 3a, ATCC 22019, 3 replicates, MIC recorded at 48 h, read-out: MIC, C. parapsilosis ATCC 22019
[15] = Table 3b (additional results), ATCC 22019, 3 replicates, MIC recorded at 48 h, read-out: MIC, C. parapsilosis ATCC 22019
[16] = Botrtyis cinerea, growth inhibition at 48 hours vs 2% DMSO control, read-out: Concentration at 90% Inhibition Bc
[17] = Botrtyis cinerea, growth inhibition vs 2% DMSO control at 48 hours, read-out: Concentration at 90% Inhibition Bc
[18] = growth inhibition at 48 hours vs 2% DMSO control, read-out: Concentration at 90% Inhibition Fv
[19] = growth inhibition vs 2% DMSO control at 48 hours, read-out: Concentration at 90% Inhibition Fv
[20] = Table 3a, ATCC 6258, 3 replicates, MIC recorded at 48 h, read-out: MIC, C. krusei ATCC 6258
[21] = Table 3b (additional results), ATCC 6258, 3 replicates, MIC recorded at 48 h, read-out: MIC, C. krusei ATCC 6258
[22] = Fusarium moniliforme, growth inhibition at 48 hours vs 2% DMSO control
[23] = Fusarium moniliforme, growth inhibition vs 2% DMSO control at 48 hours
[24] = Septoria tritici, growth inhibition at 48 hours vs 2% DMSO control, read-out: Concentration at 90% Inhibition St
[25] = Septoria tritici, growth inhibition vs 2% DMSO control at 48 hours, read-out: Concentration at 90% Inhibition St
[26] = Diplodia maydis, growth inhibition at 48 hours vs 2% DMSO control, read-out: Concentration at 90% Inhibition Dm
[27] = Diplodia maydis, growth inhibition vs 2% DMSO control at 48 hours, read-out: Concentration at 90% Inhibition Dm
[28] = mycelial plugs, growth inhibition at 48 hours vs 2% DMSO control, read-out: Concentration at 90% Inhibition Rs
[29] = mycelial plugs, growth inhibition vs 2% DMSO control at 48 hours, read-out: Concentration at 90% Inhibition Rs
[30] = Collectotrichum graminicola, growth inhibition at 48 hours vs 2% DMSO control, read-out: Concentration at 90% Inhibition Cg
[31] = Collectotrichum graminicola, growth inhibition vs 2% DMSO control at 48 hours, read-out: Concentration at 90% Inhibition Cg

fungal (fACC2), sequence (Q00955 whole entry): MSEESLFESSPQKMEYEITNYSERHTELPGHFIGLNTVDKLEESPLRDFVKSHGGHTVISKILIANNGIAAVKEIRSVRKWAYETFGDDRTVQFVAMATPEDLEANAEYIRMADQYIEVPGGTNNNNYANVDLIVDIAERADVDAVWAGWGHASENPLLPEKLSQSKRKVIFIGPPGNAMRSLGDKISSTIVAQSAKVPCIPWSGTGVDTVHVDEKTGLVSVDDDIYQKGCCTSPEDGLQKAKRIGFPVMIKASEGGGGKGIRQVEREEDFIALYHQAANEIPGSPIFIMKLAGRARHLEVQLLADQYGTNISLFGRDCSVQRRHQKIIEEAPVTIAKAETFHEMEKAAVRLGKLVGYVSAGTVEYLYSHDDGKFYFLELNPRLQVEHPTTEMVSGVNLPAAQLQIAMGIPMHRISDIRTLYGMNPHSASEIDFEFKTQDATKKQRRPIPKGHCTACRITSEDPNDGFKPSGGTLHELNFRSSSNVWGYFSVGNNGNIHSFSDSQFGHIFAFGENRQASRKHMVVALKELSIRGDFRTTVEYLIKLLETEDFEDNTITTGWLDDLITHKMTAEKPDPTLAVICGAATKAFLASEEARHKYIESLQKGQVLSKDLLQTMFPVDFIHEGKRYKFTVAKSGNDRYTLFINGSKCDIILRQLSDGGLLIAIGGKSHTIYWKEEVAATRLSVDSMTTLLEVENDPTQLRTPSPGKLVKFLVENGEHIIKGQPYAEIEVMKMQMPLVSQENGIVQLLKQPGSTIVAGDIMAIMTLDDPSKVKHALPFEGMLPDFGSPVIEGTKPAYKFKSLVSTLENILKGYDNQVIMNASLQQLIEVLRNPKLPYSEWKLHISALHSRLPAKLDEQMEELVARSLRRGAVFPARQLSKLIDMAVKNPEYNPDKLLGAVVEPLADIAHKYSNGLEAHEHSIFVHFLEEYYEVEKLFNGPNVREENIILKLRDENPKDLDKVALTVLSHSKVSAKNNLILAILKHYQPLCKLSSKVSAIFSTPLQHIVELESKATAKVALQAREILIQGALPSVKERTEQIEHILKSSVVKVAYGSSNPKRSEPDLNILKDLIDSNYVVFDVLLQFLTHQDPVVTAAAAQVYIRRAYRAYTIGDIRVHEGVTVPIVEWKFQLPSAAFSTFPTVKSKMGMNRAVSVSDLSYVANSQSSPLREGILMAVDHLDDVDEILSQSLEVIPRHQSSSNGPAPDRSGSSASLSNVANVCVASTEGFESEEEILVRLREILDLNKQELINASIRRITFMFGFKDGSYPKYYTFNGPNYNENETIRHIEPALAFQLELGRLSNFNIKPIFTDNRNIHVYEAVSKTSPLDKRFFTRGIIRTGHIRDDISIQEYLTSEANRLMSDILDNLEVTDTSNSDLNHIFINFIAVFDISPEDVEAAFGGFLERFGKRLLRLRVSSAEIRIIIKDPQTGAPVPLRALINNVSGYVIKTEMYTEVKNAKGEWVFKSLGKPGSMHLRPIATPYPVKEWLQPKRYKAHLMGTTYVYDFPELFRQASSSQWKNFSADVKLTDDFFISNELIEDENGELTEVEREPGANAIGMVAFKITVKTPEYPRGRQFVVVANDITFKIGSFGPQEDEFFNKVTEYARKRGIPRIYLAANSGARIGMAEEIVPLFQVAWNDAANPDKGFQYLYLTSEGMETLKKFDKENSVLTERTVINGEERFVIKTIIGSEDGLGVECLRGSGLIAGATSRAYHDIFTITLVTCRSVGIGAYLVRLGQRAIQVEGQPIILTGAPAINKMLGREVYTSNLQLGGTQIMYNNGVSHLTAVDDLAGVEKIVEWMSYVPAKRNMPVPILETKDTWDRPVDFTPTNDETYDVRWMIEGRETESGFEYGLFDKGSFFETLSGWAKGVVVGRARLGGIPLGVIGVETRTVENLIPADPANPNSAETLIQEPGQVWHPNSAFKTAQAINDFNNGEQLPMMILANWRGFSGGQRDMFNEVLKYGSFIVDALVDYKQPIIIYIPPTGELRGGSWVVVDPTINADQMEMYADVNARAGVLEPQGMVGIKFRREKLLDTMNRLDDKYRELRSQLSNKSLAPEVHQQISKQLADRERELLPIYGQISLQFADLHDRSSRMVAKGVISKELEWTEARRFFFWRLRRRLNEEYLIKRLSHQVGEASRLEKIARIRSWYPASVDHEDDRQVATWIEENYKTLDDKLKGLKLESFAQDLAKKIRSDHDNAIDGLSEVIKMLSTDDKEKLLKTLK

SMILES	MIC [1, 12]	MIC [1, 13]	MIC [2, 14]	MIC [2, 15]	IC50 ([3]; Table 2a)	IC50 ([3]; Table 2b, additional results)	IC90 [4, 16]	IC90 [4, 17]	IC90 [5, 18]	IC90 [5, 19]	MIC [6, 20]	MIC [6, 21]	IC90 [7, 22]	IC90 [7, 23]	IC90 [8, 24]	IC90 [8, 25]	IC90 [9, 26]	IC90 [9, 27]	IC90 [10, 28]	IC90 [10, 29]	also measured
COc1ccc(F)cc1[C@H](Cn1c(=O)n(C(C)(C)C(=O)N2CCCC2)c(=O)c2c(C)c(-n3nccn3)sc21)OCCO [Compound I-44, (R)-1-(2-(5-fluoro-2-methoxyphenyl)-2-(2-hydroxyethoxy)ethyl)-5-methyl-3-(2-methyl-1-oxo-1-(pyrrolidin-1-yl)propan-2-yl)-6-(2H-1,2,3-triazol-2-yl)thieno[2,3-d]pyrimidine-2,4(1H,3H)-dione]	2.1 to 4 µg/mL (≈ 3.5 to 6.66 µM)	1.01 to 2 µg/mL (≈ 1.68 to 3.33 µM)	2.1 to 4 µg/mL (≈ 3.5 to 6.66 µM)	1.01 to 2 µg/mL (≈ 1.68 to 3.33 µM)	0.4 to 1 nM	0.3 to 1 nM	2 µg/mL (≈ 3.33 µM)	2 µg/mL (≈ 3.33 µM)	0.4 µg/mL (≈ 0.666 µM)	0.4 µg/mL (≈ 0.666 µM)	1.1 to 2 µg/mL (≈ 1.83 to 3.33 µM)	1.01 to 2 µg/mL (≈ 1.68 to 3.33 µM)	0.4 µg/mL (≈ 0.666 µM)	0.4 µg/mL (≈ 0.666 µM)	> 50 µg/mL	> 50 µg/mL	2 µg/mL (≈ 3.33 µM)	10 µg/mL (≈ 16.6 µM)	2 µg/mL (≈ 3.33 µM)	10 µg/mL (≈ 16.6 µM)	IC90 [11, 30]: 2 µg/mL (≈ 3.33 µM); IC90 [11, 31]: 2 µg/mL (≈ 3.33 µM)
COc1ccc(F)cc1[C@H](Cn1c(=O)n(C(C)(C)C(=O)NC(C)C)c(=O)c2c(C)c(-n3nccn3)sc21)OC[C@@H](C)O [Compound I-45, 2-(1-((R)-2-(5-fluoro-2-methoxyphenyl)-2-((R)-2-hydroxypropoxy)ethyl)-5-methyl-2,4-dioxo-6-(2H-1,2,3-triazol-2-yl)-1,4-dihydro-thieno[2,3-d]pyrimidin-3(2H)-yl)-N-isopropyl-2-methylpropanamide]	–	–	–	–	1 to 5 nM	1 to 5 nM	–	–	–	–	–	–	–	–	–	–	–	–	–	–	MIC ([1]; read-out: MIC, C. albicans ATCC 90028, Table 3a, 3 replicates, MIC recorded at 48 h): 0.25 to 1 µg/mL (≈ 0.415 to 1.66 µM); MIC ([1]; read-out: MIC, C. albicans ATCC 90028, Table 3b (additional results), 3 replicates, MIC recorded at 48 h): 0.25 to 1 µg/mL (≈ 0.415 to 1.66 µM); MIC ([2]; read-out: MIC, C. parapsilosis ATCC 22019, Table 3a, 3 replicates, MIC recorded at 48 h): 0.25 to 1 µg/mL (≈ 0.415 to 1.66 µM); MIC ([2]; read-out: MIC, C. parapsilosis ATCC 22019, Table 3b (additional results), 3 replicates, MIC recorded at 48 h): 1.01 to 2 µg/mL (≈ 1.68 to 3.32 µM); IC90 ([4]; read-out: Concentration at 90% Inhibition Bc, Botrtyis cinerea, growth inhibition at 48 hours vs 2% DMSO control): 2 µg/mL (≈ 3.32 µM); IC90 ([4]; read-out: Concentration at 90% Inhibition Bc, Botrtyis cinerea, growth inhibition vs 2% DMSO control at 48 hours): 2 µg/mL (≈ 3.32 µM); IC90 ([5]; read-out: Concentration at 90% Inhibition Fv, Fusarium virguliforme, growth inhibition at 48 hours vs 2% DMSO control): 0.4 µg/mL (≈ 0.664 µM); IC90 ([5]; read-out: Concentration at 90% Inhibition Fv, Fusarium virguliforme, growth inhibition vs 2% DMSO control at 48 hours): 0.4 µg/mL (≈ 0.664 µM); MIC ([6]; read-out: MIC, C. krusei ATCC 6258, Table 3a, 3 replicates, MIC recorded at 48 h): 0.25 to 1 µg/mL (≈ 0.415 to 1.66 µM); MIC ([6]; read-out: MIC, C. krusei ATCC 6258, Table 3b (additional results), 3 replicates, MIC recorded at 48 h): 1.01 to 2 µg/mL (≈ 1.68 to 3.32 µM); Concentration at 90% Inhibition Fm [7, 22]: AA (compound concentration of 0.08 ppm at 90% inhibition of fungal pathogens); IC90 [7]: 0.08 µg/mL (≈ 0.133 µM); IC90 ([8]; read-out: Concentration at 90% Inhibition St, Septoria tritici, growth inhibition at 48 hours vs 2% DMSO control): 2 µg/mL (≈ 3.32 µM); IC90 ([8]; read-out: Concentration at 90% Inhibition St, Septoria tritici, growth inhibition vs 2% DMSO control at 48 hours): 10 µg/mL (≈ 16.6 µM); IC90 ([9]; read-out: Concentration at 90% Inhibition Dm, Diplodia maydis, growth inhibition at 48 hours vs 2% DMSO control): 0.4 µg/mL (≈ 0.664 µM); IC90 ([9]; read-out: Concentration at 90% Inhibition Dm, Diplodia maydis, growth inhibition vs 2% DMSO control at 48 hours): 0.4 µg/mL (≈ 0.664 µM); IC90 ([10]; read-out: Concentration at 90% Inhibition Rs, Rhizoctonia solani, mycelial plugs, growth inhibition at 48 hours vs 2% DMSO control): 0.08 µg/mL (≈ 0.133 µM); IC90 ([10]; read-out: Concentration at 90% Inhibition Rs, Rhizoctonia solani, mycelial plugs, growth inhibition vs 2% DMSO control at 48 hours): 0.08 µg/mL (≈ 0.133 µM); IC90 ([11]; read-out: Concentration at 90% Inhibition Cg, Collectotrichum graminicola, growth inhibition at 48 hours vs 2% DMSO control): 0.4 µg/mL (≈ 0.664 µM); IC90 ([11]; read-out: Concentration at 90% Inhibition Cg, Collectotrichum graminicola, growth inhibition vs 2% DMSO control at 48 hours): 0.4 µg/mL (≈ 0.664 µM)
COc1ccc(F)cc1[C@H](Cn1c(=O)n(C(C)(C)C(=O)N2CCCC2)c(=O)c2c(C)c(-n3nccn3)sc21)OC[C@@H](C)O [Compound I-46, 1-((R)-2-(5-fluoro-2-methoxyphenyl)-2-((R)-2-hydroxypropoxy)ethyl)-5-methyl-3-(2-methyl-1-oxo-1-(pyrrolidin-1-yl)propan-2-yl)-6-(2H-1,2,3-triazol-2-yl)thieno[2,3-d]pyrimidine-2,4(1H,3H)-dione]	0.25 to 1 µg/mL (≈ 0.407 to 1.63 µM)	0.25 to 1 µg/mL (≈ 0.407 to 1.63 µM)	1.1 to 2 µg/mL (≈ 1.79 to 3.25 µM)	1.01 to 2 µg/mL (≈ 1.64 to 3.25 µM)	1 to 5 nM	1 to 5 nM	2 µg/mL (≈ 3.25 µM)	2 µg/mL (≈ 3.25 µM)	2 µg/mL (≈ 3.25 µM)	2 µg/mL (≈ 3.25 µM)	0.25 to 1 µg/mL (≈ 0.407 to 1.63 µM)	2.01 to 4 µg/mL (≈ 3.27 to 6.51 µM)	0.08 µg/mL (≈ 0.13 µM)	0.08 µg/mL (≈ 0.13 µM)	> 50 µg/mL	> 50 µg/mL	2 µg/mL (≈ 3.25 µM)	2 µg/mL (≈ 3.25 µM)	0.4 µg/mL (≈ 0.651 µM)	0.4 µg/mL (≈ 0.651 µM)	IC90 [11, 30]: 0.4 µg/mL (≈ 0.651 µM); IC90 [11, 31]: 0.4 µg/mL (≈ 0.651 µM)
